Experimental data reported in publication PMC12274840 (The Journal of Biological Chemistry, 2025).
≈ marks a conversion by molar mass, not a printed value. Where two headings read alike, the source gives them in different places.

Tests used:
[1] = test system: E. coli KA797 cells carrying pUK21 with BlaC WT (Tat); assay: microbe, parasite or virus in culture; type: cell-based; settings: Escherichia coli, antibiotic alone
[2] = test system: E. coli KA797 cells carrying pUK21 vector without the β-lactamase gene; assay: microbe, parasite or virus in culture; type: cell-based; settings: Escherichia coli
[3] = test system: E. coli KA797 cells carrying pUK21 with NmcA (pelB/Sec); assay: microbe, parasite or virus in culture; type: cell-based; settings: Escherichia coli, antibiotic alone
[4] = test system: E. coli KA797 cells carrying TEM-1 position 105 library; type: cell-based; settings: for Fi CEF AVG: average of replicates
[5] = test system: E. coli KA797 cells carrying NmcA position 105 library; type: cell-based
[6] = test system: E. coli KA797 cells carrying CTX-M-14 position 105 library; type: cell-based
[7] = test system: E. coli KA797 cells carrying BlaC position 105 library; type: cell-based, Escherichia coli; settings: ceftriaxone; for Fi CEF AVG: average of replicates; for Fi CEF 1: replicate 1
[8] = test system: E. coli KA797 cells carrying pUK21 with CTX-M-14 WT (Tat); assay: microbe, parasite or virus in culture; type: cell-based; settings: Escherichia coli, antibiotic alone
[9] = test system: O=C(Cc1cccs1)N[C@@H]1C(=O)N2C(C(=O)O)=C(/C=C/c3ccc([N+](=O)[O-])cc3[N+](=O)[O-])CS[C@H]12; assay: purified protein, by the assay type; settings: pH 6.4; 25.0 °C
[10] = test system: CC1(C)S[C@@H]2[C@H](NC(=O)C(C(=O)O)c3ccccc3)C(=O)N2[C@H]1C(=O)O; assay: purified protein, by the assay type; settings: pH 6.4; 25.0 °C
[11] = test system: CC1(C)S[C@@H]2[C@H](NC(=O)[C@H](N)c3ccccc3)C(=O)N2[C@H]1C(=O)O; assay: purified protein, by the assay type; settings: pH 6.4; 25.0 °C
[12] = test system: CC1(C)S[C@@H]2[C@H](NC(=O)C(C(=O)O)c3ccccc3)C(=O)N2[C@H]1C(=O)O; assay: purified protein, by the assay type; settings: pH 6.4; 25.0 °C; remark: listed apart in the source

## CO/N=C(\C(=O)N[C@@H]1C(=O)N2C(C(=O)O)=C(CSc3nc(=O)c(=O)[nH]n3C)CS[C@H]12)c1csc(N)n1 [ceftriaxone]
[1]
  MIC: 0.2 µg/mL (≈ 0.361 µM)
[2]
  MIC: 0.1 µg/mL (≈ 0.18 µM)
[3]
  MIC: 0.2 µg/mL (≈ 0.361 µM)
[4]; AA 105 Ala, replicate 2
  Fi CEF 2: -0.112
[4]; AA 105 Ala, replicate 3
  Fi CEF 3: 0.013
[4]; AA 105 Asn, replicate 2
  Fi CEF 2: -0.107
[4]; AA 105 Asn, replicate 3
  Fi CEF 3: -0.034
[4]; AA 105 Asp, replicate 1
  Fi CEF 1: 0.596
[4]; AA 105 Cys
  Fi CEF AVG: 0.087
[4]; AA 105 Cys, replicate 1
  Fi CEF 1: 0.906
[4]; AA 105 Gln
  Fi CEF AVG: 0.078
[4]; AA 105 Gln, replicate 1
  Fi CEF 1: 0.356
[4]; AA 105 Gln, replicate 2
  Fi CEF 2: -0.028
[4]; AA 105 Gln, replicate 3
  Fi CEF 3: -0.095
[4]; AA 105 Glu, replicate 1
  Fi CEF 1: 0.340
[4]; AA 105 Glu, replicate 2
  Fi CEF 2: -0.099
[4]; AA 105 Gly
  Fi CEF AVG: 0.067
[4]; AA 105 Gly, replicate 1
  Fi CEF 1: 0.338
[4]; AA 105 Gly, replicate 2
  Fi CEF 2: -0.077
[4]; AA 105 Gly, replicate 3
  Fi CEF 3: -0.061
[4]; AA 105 Leu
  Fi CEF AVG: 0.072
[4]; AA 105 Leu, replicate 1
  Fi CEF 1: 0.332
[4]; AA 105 Leu, replicate 2
  Fi CEF 2: 0.047
[4]; AA 105 Lys
  Fi CEF AVG: 0.057
[4]; AA 105 Lys, replicate 3
  Fi CEF 3: 0.102
[4]; AA 105 Phe
  Fi CEF AVG: 0.182
[4]; AA 105 Phe, replicate 2
  Fi CEF 2: 0.022
[4]; AA 105 Phe, replicate 3
  Fi CEF 3: 0.240
[4]; AA 105 Pro
  Fi CEF AVG: 0.130
[4]; AA 105 Pro, replicate 1
  Fi CEF 1: 0.375
[4]; AA 105 Pro, replicate 2
  Fi CEF 2: -0.060
[4]; AA 105 Pro, replicate 3
  Fi CEF 3: 0.074
[4]; AA 105 Ser
  Fi CEF AVG: 0.105
[4]; AA 105 Ser, replicate 3
  Fi CEF 3: 0.208
[4]; AA 105 Trp
  Fi CEF AVG: 0.125
[4]; AA 105 Trp, replicate 1
  Fi CEF 1: 0.969
[4]; AA 105 Tyr, replicate 2
  Fi CEF 2: 0.000
[4]; AA 105 Tyr, replicate 3
  Fi CEF 3: 0.000
[4]; absolute fitness of TEM-1 WT, CEF, replicate 1
  WT abs Fi 1: -0.283
[4]; absolute fitness of TEM-1 WT, CEF, replicate 2
  WT abs Fi 2: 0.276
[4]; absolute fitness of TEM-1 WT, CEF, replicate 3
  WT abs Fi 3: 0.176
[5]; NmcA AA 105 Asp
  Fi AVG (average fitness of replicates): 0.078
[5]; NmcA AA 105 Cys
  Fi AVG (average fitness of replicates): 0.046
[5]; NmcA AA 105 Glu
  Fi AVG (average fitness of replicates): 0.057
[5]; NmcA AA 105 Lys
  Fi AVG (average fitness of replicates): 0.077
[5]; NmcA AA 105 Phe
  Fi AVG (average fitness of replicates): 0.046
[5]; NmcA AA 105 Pro
  Fi AVG (average fitness of replicates): 0.055
[5]; NmcA AA 105 Trp
  Fi AVG (average fitness of replicates): 0.226
  Significance of average fitness: +
[5]; NmcA WT, replicate 1
  WT abs Fi 1 (absolute fitness): 0.029
[5]; NmcA WT, replicate 2
  WT abs Fi 2 (absolute fitness): -0.00378
[5]; NmcA WT, replicate 3
  WT abs Fi 3 (absolute fitness): -0.101
[6]; CTX-M-14 AA 105 Ala
  Significance of average fitness: -
[6]; CTX-M-14 AA 105 Arg
  Significance of average fitness: -
[6]; CTX-M-14 AA 105 Asn
  Significance of average fitness: -
[6]; CTX-M-14 AA 105 Asp
  Significance of average fitness: -
[6]; CTX-M-14 AA 105 Cys
  Significance of average fitness: -
[6]; CTX-M-14 AA 105 Gln
  Significance of average fitness: -
[6]; CTX-M-14 AA 105 Glu
  Significance of average fitness: -
[6]; CTX-M-14 AA 105 Gly
  Significance of average fitness: -
[6]; CTX-M-14 AA 105 His
  Significance of average fitness: -
[6]; CTX-M-14 AA 105 Ile
  Significance of average fitness: -
[6]; CTX-M-14 AA 105 Leu
  Significance of average fitness: -
[6]; CTX-M-14 AA 105 Lys
  Significance of average fitness: -
[6]; CTX-M-14 AA 105 Met
  Significance of average fitness: -
[6]; CTX-M-14 AA 105 Phe
  Significance of average fitness: -
[6]; CTX-M-14 AA 105 Pro
  Significance of average fitness: -
[6]; CTX-M-14 AA 105 Ser
  Significance of average fitness: -
[6]; CTX-M-14 AA 105 Thr
  Significance of average fitness: -
[6]; CTX-M-14 AA 105 Trp
  Significance of average fitness: +
[6]; CTX-M-14 AA 105 Val
  Significance of average fitness: -
[6]; CTX-M-14 WT (Tyr 105)
  WT abs Fi 1 (absolute fitness of wild type, Replicate 1): 0.241
  WT abs Fi 2 (absolute fitness of wild type, Replicate 2): 0.256
[7]; AA 105 Arg
  Fi CEF AVG: 0.035
  Fi CEF 1: 0.040
[7]; AA 105 Arg, replicate 2
  Fi CEF 2: 0.029
[7]; AA 105 Cys
  Fi CEF AVG: 0.035
  Fi CEF 1: 0.020
[7]; AA 105 Cys, replicate 2
  Fi CEF 2: 0.049
[7]; AA 105 Gly, replicate 2
  Fi CEF 2: -0.00224
[7]; AA 105 His
  Fi CEF AVG: 0.032
  Fi CEF 1: 0.007
[7]; AA 105 His, replicate 2
  Fi CEF 2: 0.057
[7]; AA 105 Ile (WT)
  Fi CEF AVG: 0.000
  Fi CEF 1: 0.000
[7]; AA 105 Ile (WT), replicate 2
  Fi CEF 2: 0.000
[7]; AA 105 Leu
  Fi CEF AVG: 0.017
  Fi CEF 1: 0.023
[7]; AA 105 Leu, replicate 2
  Fi CEF 2: 0.011
[7]; AA 105 Lys
  Fi CEF AVG: -0.009
[7]; AA 105 Lys, replicate 2
  Fi CEF 2: -0.009
[7]; AA 105 Met
  Fi CEF AVG: 0.036
  Fi CEF 1: 0.064
[7]; AA 105 Met, replicate 2
  Fi CEF 2: 0.008
[7]; AA 105 Phe
  Fi CEF AVG: 0.008
  Fi CEF 1: -0.000834
[7]; AA 105 Phe, replicate 2
  Fi CEF 2: 0.017
[7]; AA 105 Ser
  Fi CEF AVG: -0.011
  Fi CEF 1: -0.00266
[7]; AA 105 Trp
  Fi CEF AVG: 0.038
  Fi CEF 1: 0.042
[7]; AA 105 Trp, replicate 2
  Fi CEF 2: 0.034
[7]; AA 105 Val
  Fi CEF 1: 0.004
[7]; WT (Ile 105) absolute fitness, replicate 2
  WT abs Fi 2: -0.008
[8]
  MIC: 1600 µg/mL (≈ 2890 µM)

## (Escherichia coli)
[9]
  Km: 79 ± 1 µM
  kcat: 576 ± 5 s⁻¹
  kcat/Km: 7.31e+06 ± 80000 M⁻¹ s⁻¹
[10]
  Km: 20 ± 2 µM
  kcat: 31 ± 2 s⁻¹
  kcat/Km: 1.55e+06 ± 180000 M⁻¹ s⁻¹
[11]
  Km: 76 ± 2 µM
  kcat: 103 ± 1 s⁻¹
  kcat/Km: 1.36e+06 ± 80000 M⁻¹ s⁻¹
[12]
  Km: 10.0 ± 0.7 µM
  kcat: 92 ± 2 s⁻¹
  kcat/Km: 9.15e+06 ± 660000 M⁻¹ s⁻¹
